Source: the CheMixHub viscosity set

Experiment: xn = mol fraction of the nth substance listed
Details: 101 kPa

CC(=O)OC(C)C + C1CCCCC1
viscosity [mPa·s]
Details	298.15 K	308.15 K
x1 = 0.0846	0.8036	0.6718
x1 = 0.1126	0.7518	0.6494
x1 = 0.1665	0.705	0.612
x1 = 0.2671	0.636	0.5559
x1 = 0.3555	0.594	0.5212
x1 = 0.4881	0.5485	0.4824
x1 = 0.5911	0.5241	0.462
x1 = 0.6773	0.5099	0.4512
x1 = 0.7902	0.4951	0.441
x1 = 0.8873	0.4932	0.4366
x1 = 0.9593	0.4903	0.4349
x2 = 0.07507	–	0.4324
x2 = 0.2053	–	0.4373
x2 = 0.298	–	0.4444
x2 = 0.3967	–	0.4564
x2 = 0.505	–	0.4759
x2 = 0.6014	–	0.4989
x2 = 0.714	–	0.5351
x2 = 0.7973	–	0.5787
x2 = 0.8978	–	0.6451

COCCO + CCCCCCCO
viscosity [mPa·s]
Details	x1 = 0.1451	x1 = 0.2763	x1 = 0.3956	x1 = 0.5044	x1 = 0.6043	x1 = 0.6961	x1 = 0.7808	x1 = 0.8593	x1 = 0.9322
298.15 K	4.92	3.963	3.336	2.889	2.551	2.252	2.054	1.852	1.79
308.15 K	3.116	2.561	2.23	1.936	1.753	1.592	1.489	1.341	1.247
318.15 K	2.496	2.203	1.906	1.611	1.487	1.455	1.465	1.142	1.095
